The values below come from ChEMBL document CHEMBL3822442, “Synthesis and Pharmacological Characterization of Novel Glucagon-like Peptide-2 (GLP-2) Analogues with Low Systemic Clearance” (J Med Chem, 2016).

A word on the EC50: it is the concentration needed to bring the measured effect to its halfway point. High values mean weaker potency, low ones greater potency. As a reminder, the clearance is the volume of plasma or blood freed of the substance per unit of time. Lower therefore signals a low capacity for elimination. Broadly, the half-life is the time needed for the level to fall by half in the phase considered.

The test system of one data set is Rattus norvegicus. In words: Intestinotrophic activity in Sprague-Dawley rat assessed as increase in intestinal growth at 1000 nmol/kg, sc once daily through bolus administration for 5 days relative to control. Type of data set: functional.
Data set [1] has as its target Glucagon-like peptide 1 receptor (Homo sapiens, UniProt P43220). In words: Agonist activity at human GLP1R expressed in HEK293 cells after 5 hrs by luciferase reporter gene assay. Format: cell-based. (In a reporter assay the amount or activity of a reporter protein is the signal.)
The nature of data set [2]: Protein binding in rat plasma at 200 to 1000 ng/ml incubated for 15 mins by LC/MS/MS based ultracentrifugation method. Type of data set: ADME, cell-free. Conditions: read-out: PPB (converted).
The nature of data set [3]: Systemic clearance in Sprague-Dawley rat at 0.2 mg/kg, iv through cassette dosing measured up to 300 mins by LC/MS/MS analysis. Type of data set: ADME, organism-based. Conditions: in vivo.
The subject of the next data set is HEK293. Description: Selectivity ratio of EC50 for human GLP1R expressed in HEK293 cells to EC50 for human GLP2R expressed in HEK293. Format: cell-based.
Data set [4] addresses Glucagon receptor (Homo sapiens) (UniProt P47871). Description: Agonist activity at human GCGR expressed in HEK293 cells up to 1000 nM after 5 hrs by luciferase reporter gene assay. Format: cell-based.
In data set [5] the target is T1, Glucagon-like peptide 2 receptor (Homo sapiens, UniProt O95838).
T1 sequence (O95838 whole entry): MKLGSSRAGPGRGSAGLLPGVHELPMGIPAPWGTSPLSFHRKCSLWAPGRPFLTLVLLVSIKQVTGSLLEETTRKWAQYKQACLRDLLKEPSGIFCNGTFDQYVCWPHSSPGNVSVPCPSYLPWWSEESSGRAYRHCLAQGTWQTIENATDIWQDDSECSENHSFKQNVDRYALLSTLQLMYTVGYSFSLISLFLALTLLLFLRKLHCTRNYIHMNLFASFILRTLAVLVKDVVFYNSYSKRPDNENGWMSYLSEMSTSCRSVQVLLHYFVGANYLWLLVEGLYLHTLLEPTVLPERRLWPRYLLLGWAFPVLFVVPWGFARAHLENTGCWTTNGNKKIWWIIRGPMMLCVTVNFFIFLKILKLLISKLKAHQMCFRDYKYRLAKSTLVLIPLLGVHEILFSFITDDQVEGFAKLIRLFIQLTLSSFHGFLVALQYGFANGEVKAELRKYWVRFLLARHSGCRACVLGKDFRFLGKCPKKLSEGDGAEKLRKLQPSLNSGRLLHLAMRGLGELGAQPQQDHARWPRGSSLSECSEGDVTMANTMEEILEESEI
Description: Agonist activity at human GLP2R expressed in HEK293 cells after 5 hrs by luciferase reporter gene assay. Format: cell-based.

The target in data set [6] is T2, Glucagon-like peptide 2 receptor (Rattus norvegicus, UniProt Q9Z0W0).
T2 sequence (Q9Z0W0 whole entry): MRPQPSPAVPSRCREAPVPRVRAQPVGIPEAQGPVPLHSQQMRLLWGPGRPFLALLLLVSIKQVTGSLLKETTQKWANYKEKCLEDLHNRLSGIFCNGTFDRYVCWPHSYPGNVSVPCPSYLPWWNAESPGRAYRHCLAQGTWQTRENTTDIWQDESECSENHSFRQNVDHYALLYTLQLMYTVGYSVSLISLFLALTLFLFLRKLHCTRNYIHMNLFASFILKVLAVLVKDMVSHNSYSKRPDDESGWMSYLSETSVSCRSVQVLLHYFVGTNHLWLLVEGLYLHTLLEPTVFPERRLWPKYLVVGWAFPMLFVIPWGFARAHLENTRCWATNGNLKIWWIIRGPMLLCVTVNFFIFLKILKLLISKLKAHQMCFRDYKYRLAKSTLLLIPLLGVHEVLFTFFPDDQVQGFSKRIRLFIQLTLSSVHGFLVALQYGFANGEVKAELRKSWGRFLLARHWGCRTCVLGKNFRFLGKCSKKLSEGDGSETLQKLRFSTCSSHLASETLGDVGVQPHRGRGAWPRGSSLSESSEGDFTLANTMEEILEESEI
In words: Agonist activity at rat GLP2R expressed in HEK293 cells after 5 hrs by luciferase reporter gene assay. Type of data set: cell-based.

Data set [7] can be described thus: Half life in sc dosed human. Conditions: in vivo. Type of data set: ADME, organism-based.

Activity calls are given as the source filed them. Non-standard residues stand in square brackets, D forms with d. Residues, ends and D or L forms follow the SMILES beside them. ξ: configuration not given here. ξNle = CCCCC(N)C(=O)O

Chain of Glucagon-like peptide 1 receptor (P43220 whole entry): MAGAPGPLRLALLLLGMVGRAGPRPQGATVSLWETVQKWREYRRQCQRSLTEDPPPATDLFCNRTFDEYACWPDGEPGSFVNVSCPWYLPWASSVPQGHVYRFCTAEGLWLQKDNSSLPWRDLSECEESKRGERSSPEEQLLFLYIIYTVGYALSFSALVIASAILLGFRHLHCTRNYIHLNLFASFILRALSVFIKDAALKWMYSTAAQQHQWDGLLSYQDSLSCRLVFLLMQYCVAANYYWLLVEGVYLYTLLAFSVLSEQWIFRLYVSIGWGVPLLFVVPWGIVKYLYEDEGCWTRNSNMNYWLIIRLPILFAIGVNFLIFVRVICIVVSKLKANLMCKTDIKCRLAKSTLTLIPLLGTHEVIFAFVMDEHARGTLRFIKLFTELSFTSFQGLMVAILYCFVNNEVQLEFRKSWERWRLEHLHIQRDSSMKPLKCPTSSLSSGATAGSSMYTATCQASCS
Chain of Glucagon receptor (Homo sapiens) (P47871 whole entry): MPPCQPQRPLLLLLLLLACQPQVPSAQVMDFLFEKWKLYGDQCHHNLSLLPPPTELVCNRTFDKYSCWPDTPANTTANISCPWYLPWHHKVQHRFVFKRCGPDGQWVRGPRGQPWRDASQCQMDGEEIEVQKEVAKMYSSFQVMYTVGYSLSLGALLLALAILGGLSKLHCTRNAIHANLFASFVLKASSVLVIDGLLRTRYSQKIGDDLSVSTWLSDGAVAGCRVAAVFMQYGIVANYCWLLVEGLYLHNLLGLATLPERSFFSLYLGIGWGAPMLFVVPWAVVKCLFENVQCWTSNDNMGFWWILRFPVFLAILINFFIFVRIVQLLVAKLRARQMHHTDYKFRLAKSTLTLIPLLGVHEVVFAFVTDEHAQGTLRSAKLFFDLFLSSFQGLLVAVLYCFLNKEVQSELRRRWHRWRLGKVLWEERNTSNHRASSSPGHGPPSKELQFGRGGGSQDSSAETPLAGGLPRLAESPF

As to `CCCC[C@H](NC(=O)[C@H](CCC(=O)O)NC(=O)[C@H](CC(=O)O)NC(=O)[C@H](CO)NC(=O)[C@H](Cc1ccccc1)NC(=O)[C@H](CO)NC(=O)CNC(=O)[C@H](CC(=O)O)NC(=O)CNC(=O)[C@@H](N)Cc1cnc[nH]1)C(=O)N[C@H](Cc1ccccc1)C(=O)N[C@H](C(=O)N[C@H](C(=O)N[C@@H](CC(C)C)C(=O)N[C@@H](CC(=O)O)C(=O)N[C@@H](CC(C)C)C(=O)N[C@@H](CC(C)C)C(=O)N[C@@H](C)C(=O)N[C@@H](C)C(=O)N[C@@H](CCCNC(=N)N)C(=O)N[C@@H](CC(=O)O)C(=O)N[C@@H](Cc1ccccc1)C(=O)N[C@H](C(=O)N[C@@H](CC(N)=O)C(=O)N[C@@H](Cc1c[nH]c2ccccc12)C(=O)N[C@@H](CC(C)C)C(=O)N[C@H](C(=O)N[C@@H](CCC(N)=O)C(=O)N[C@H](C(=O)N[C@@H](CCCCN)C(=O)N[C@H](C(=O)N[C@H](C(=O)N[C@@H](CC(=O)O)C(N)=O)[C@@H](C)O)[C@@H](C)CC)[C@@H](C)O)[C@@H](C)CC)[C@@H](C)CC)[C@@H](C)CC)[C@@H](C)O` [listing 1 of 2 here], the Activity in the data set on Rattus norvegicus came out at 61.2%.

As to `CCCCC(NC(=O)[C@H](CCC(=O)O)NC(=O)[C@H](CC(=O)O)NC(=O)[C@H](CO)NC(=O)[C@H](Cc1ccccc1)NC(=O)[C@H](CO)NC(=O)CNC(=O)[C@H](CC(=O)O)NC(=O)CNC(=O)[C@@H](N)Cc1cnc[nH]1)C(=O)N[C@@H](CC(N)=O)C(=O)N[C@H](C(=O)N[C@H](C(=O)N[C@@H](CC(C)C)C(=O)N[C@@H](CC(=O)O)C(=O)N[C@@H](CC(C)C)C(=O)N[C@@H](CC(C)C)C(=O)N[C@@H](C)C(=O)N[C@@H](C)C(=O)N[C@@H](CCCNC(=N)N)C(=O)N[C@@H](CC(=O)O)C(=O)N[C@@H](Cc1ccccc1)C(=O)N[C@H](C(=O)N[C@@H](CC(N)=O)C(=O)N[C@@H](Cc1c[nH]c2ccccc12)C(=O)N[C@@H](CC(C)C)C(=O)N[C@H](C(=O)N[C@@H](CCC(N)=O)C(=O)N[C@H](C(=O)N[C@@H](CCCCN)C(N)=O)[C@@H](C)O)[C@@H](C)CC)[C@@H](C)CC)[C@@H](C)CC)[C@@H](C)O` (stereo partly specified) (H-HGDGSFSDE[ξNle]NTILDLLAARDFINWLIQTK-NH2), the figures for the EC50 in data set [1] and in data set [5] were above 1000 nM and 0.1 nM, respectively. Besides, the fraction unbound at 0.25 h in data set [2] is 0.013. In data set [3], this molecule displayed a clearance of 0.84 mL/min/kg. The Ratio EC50 in the data set with HEK293 is above 10000. Also, the result in [4] was inactive.

Take `CCCC[C@H](NC(=O)[C@H](CCC(=O)O)NC(=O)[C@H](CC(=O)O)NC(=O)[C@H](CO)NC(=O)[C@H](Cc1ccccc1)NC(=O)[C@H](CO)NC(=O)CNC(=O)[C@H](CC(=O)O)NC(=O)CNC(=O)[C@@H](N)Cc1cnc[nH]1)C(=O)N[C@H](Cc1ccccc1)C(=O)N[C@H](C(=O)N[C@H](C(=O)N[C@@H](CC(C)C)C(=O)N[C@@H](CC(=O)O)C(=O)N[C@@H](CC(C)C)C(=O)N[C@@H](CC(C)C)C(=O)N[C@@H](C)C(=O)N[C@@H](C)C(=O)N[C@@H](CCCNC(=N)N)C(=O)N[C@@H](CC(=O)O)C(=O)N[C@@H](Cc1ccccc1)C(=O)N[C@H](C(=O)N[C@@H](CC(N)=O)C(=O)N[C@@H](Cc1c[nH]c2ccccc12)C(=O)N[C@@H](CC(C)C)C(=O)N[C@H](C(=O)N[C@@H](CCC(N)=O)C(=O)N[C@H](C(=O)N[C@@H](CCCCN)C(=O)N[C@H](C(=O)N[C@H](C(=O)N[C@@H](CC(=O)O)C(N)=O)[C@@H](C)O)[C@@H](C)CC)[C@@H](C)O)[C@@H](C)CC)[C@@H](C)CC)[C@@H](C)CC)[C@@H](C)O` [listing 2 of 2 here]: the figures for the EC50 in data set [1], in data set [6] and in data set [5] were above 1000 nM, 0.04 nM and 0.03 nM, respectively. In addition, the fraction unbound at 0.25 h in [2] was 0.008.

`CC[C@H](C)[C@H](NC(=O)[C@H](Cc1ccccc1)NC(=O)[C@H](CC(=O)O)NC(=O)[C@H](CCCNC(=N)N)NC(=O)[C@H](C)NC(=O)[C@H](C)NC(=O)[C@H](CC(C)C)NC(=O)[C@H](CC(N)=O)NC(=O)[C@H](CC(=O)O)NC(=O)[C@H](CC(C)C)NC(=O)[C@@H](NC(=O)[C@@H](NC(=O)[C@H](CC(N)=O)NC(=O)[C@H](CCSC)NC(=O)[C@H](CCC(=O)O)NC(=O)[C@H](CC(=O)O)NC(=O)[C@H](CO)NC(=O)[C@H](Cc1ccccc1)NC(=O)[C@H](CO)NC(=O)CNC(=O)[C@H](CC(=O)O)NC(=O)CNC(=O)[C@@H](N)Cc1c[nH]cn1)[C@@H](C)O)[C@@H](C)CC)C(=O)N[C@@H](CC(N)=O)C(=O)N[C@@H](Cc1c[nH]c2ccccc12)C(=O)N[C@@H](CC(C)C)C(=O)N[C@H](C(=O)N[C@@H](CCC(N)=O)C(=O)N[C@H](C(=O)N[C@@H](CCCCN)C(=O)N[C@H](C(=O)N[C@H](C(=O)N[C@@H](CC(=O)O)C(=O)O)[C@@H](C)O)[C@@H](C)CC)[C@@H](C)O)[C@@H](C)CC` [TEDUGLUTIDE]: the EC50 in data set [1] is above 1000 nM; in data set [6], 0.08 nM. Further, the fraction unbound at 0.25 h in data set [2] is 0.419. The Activity with Rattus norvegicus worked out at 39%. The same molecule had a half-life in [7] of 3 h.
